Earlier results, collected in patent publication US20050171000A1, “Three dimensional coordinates of melanocortin-4 receptors” (The Procter & Gamble Company, priority 2003, published 2005).

Target: T1, MC4-R (Rattus norvegicus, UniProt P70596)
T1 construct: host or cells: living rats, intraventricular administration (endogenous receptor)
Details: intraventricular administration

T1 sequence (P70596 whole entry): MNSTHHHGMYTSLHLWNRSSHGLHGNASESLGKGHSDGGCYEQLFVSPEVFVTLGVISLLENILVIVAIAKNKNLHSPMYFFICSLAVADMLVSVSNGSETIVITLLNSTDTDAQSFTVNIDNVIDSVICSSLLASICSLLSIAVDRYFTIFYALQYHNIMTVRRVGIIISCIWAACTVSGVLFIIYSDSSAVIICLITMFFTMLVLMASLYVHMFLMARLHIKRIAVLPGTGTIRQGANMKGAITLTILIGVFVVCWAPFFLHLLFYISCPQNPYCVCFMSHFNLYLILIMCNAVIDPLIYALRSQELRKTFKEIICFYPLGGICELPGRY

food intake: reduced
Substance: MTII
